Results published in patent publication US8901317B2, “Tryptamine derivatives, their preparation and their use in gastropathy” (Council of Scientific & Industrial Research, priority 2010, dated 2014).

How the values were obtained:
[1] = system: indomethacin-induced gastric mucosal damage; assay: Indomethacin-induced gastric mucosal damage (ulcer index, histology); type: in vivo, Sprague-Dwaley rats
Procedure: Sprague-Dwaley rats (180-220 gm) were used for this study. Each group (control or experimental) of animals was maintained at 24±2° C. with 12 hrs lights and dark cycle. The animals were fasted for 24 hrs before the start of experiments. They were provided with water ad libitum to avoid food-induced increased acid secretion and its effect on gastric lesions. Gastric mucosal ulcer was developed by indomethacin as described (Pal, C; et al. Free Radic Biol Med, 49(2), 258-267; 2010, Biswas, K.; et al. J. Biol. Chem. 278:10993-11001; 2003, Bandyopadhyay, U.; et al. Life Sci. 71:2845-2865; 2002). Briefly, all the animals were divided into control, indomethacin and test compound group. Oral administration of indomethacin at a dose of 48 mg kg^−1 b.w was given to the fasted animals to induce gastric ulcer. […] Control group received vehicle only but no indomethacin. After 4 hrs of indomethacin treatment, the animals were sacrificed under proper euthanasia and stomachs were collected. The mucosal injury was scored as ulcer index as follows: 0=no pathology; 1=one pinhead ulcer. The sum of the total scores divided by the number of animals gave the ulcer index. All the in vivo studies were done in accordance with the institute animal ethical committee guidelines. To see the effect of SEGA on diclofenac induced gastric mucosal injury, gastric mucosal damage was developed by the oral administration of diclofenac (75 mg kg^−1) and the rest of the experiment was carried out in a similar way as described for indomethacin. Diclofenac produced pinhead ulcer like indomethacin and the mucosal injury was scored as ulcer index as described above. Ethanol-induced gastric mucosal injury was developed with oral administration of 1 ml of 50% ethanol (Banerjee, R. K. (2002) Life Sci 71, 2845-2865) and after 4 hrs the animals were sacrificed and cold-restrain stress induced mucosal injury was developed by immobilizing the animals at 4° C. for 3.5 hrs (Banerjee, R. K. (2002) Life Sci 71, 2845-2865, (2003) J Biol Chem 278, 10993-11001).
Stomach tissues from the animals of different groups were washed first washed several times with PBS (pH 7.4) and later fixed in 10% buffered formalin for 12 hrs at 25° C. The formalin-fixed tissues were then dehydrated and embedded in paraffin for preparing semi-thin sections (Maity, P.; et al. J. Biol. Chem. 283:14391-14401; 2008). The semi-thin sections were prepared using a microtome and taken over poly-L-lysine coated glass slide for hematoxylene-eosine staining. The stained sections were observed under microscope (Leica DM-2500, Germany) and were documented by high-resolution digital camera.

[2] = Ferric reducing antioxidant power (FRAP) assay
Procedure: The antioxidant property of different tryptamine derivatives were assessed and compared with the known antioxidants for potency. […] The FRAP assay is based on the measurement of the ability of the substance to reduce Fe^3+ to Fe^2+, greater the reducing ability greater the anti oxidant property. Antioxidants reduce Fe^3+-TPTZ in to blue colored Fe^2+-TPTZ complex, which results in an increase in the absorbance at 595 nm giving a FRAP value. […] Absorbance changes at different time intervals (FIG. 6) as well as at different concentrations (FIG. 7) at time 6 min in the presence of different compounds at 595 nm were measured. FRAP values at 6 min and 65 min were calculated from different tryptamine derivatives and some known antioxidant (Table 1). […] DPPH assay based on the DPPH free radicals scavenging power of the antioxidant molecules. Higher the scavenging power higher will be the antioxidant property.
The assay was performed in a 96-well microplate. FRAP reagent was prepared by mixing of 10 ml acetate buffer (200 mM, pH-3.6), 1 ml of 2,4,6-tris(2-pyridyl)-s-triazine (TPTZ) solution (10 mM in 40 mM HCl) and 1 ml of ferric chloride solution (20 mM) in distilled water. For 1 h the mixture was kept in a water bath at 37° C. In 96-well microplates, 25 μL of the compounds under investigation dissolved (in methanol, some compound dissolved in water) at different concentrations in the range 1-25 μM was placed in triplicate and freshly prepared FRAP solution (175 μL) was added to this sample. A micro plate reader monitored the absorbance at 595 nm at different time intervals for up to 150 min. The absorbance of a mixture 175 μL TRAP sol and 25 μL methanol or water was taken which was subtracted from the absorbance of the samples at each time interval to calculate the absorbance change (ΔA). The FRAP value at time interval t (FRAP valuet) was calculated according to the formula: FRAP valuet(M)=(ΔatFl/ΔatFe^2+)×10^−5 Where ΔatFl is the absorbance change after the time interval t (6 and 65 min) relative to the tested flavonoid at the concentration of 10 μM and ΔatFe^2+ is the absorbance change at the same time interval relative to ferrous sulfate at the same concentration (Pal, C; et al. Free Radic Biol Med, 49(2), 258-267, 2010, Firuzi, O; et al. Biochim. Biophys. Acta 1721:174-184; 2005).

O=C(NCCc1c[nH]c2ccc(O)cc12)c1cc(O)c(O)c(O)c1 [Compound 3a, 3,4,5-trihydroxy-N-(2-(5-hydroxy-1H-indol-3-yl)ethyl)benzamide]
Gastric mucosal damage (ulcer index) ([1]; compound 6.9 mg kg^−1 intraperitoneally before indomethacin 48 mg kg^−1 oral, rats): 30 ± 3 | protection, indomethacin-induced gastric mucosal injury ([1]; dose 1 mg kg^−1 i.p.): 17% | protection, indomethacin-induced gastric mucosal injury ([1]; dose 3 mg kg^−1 i.p.): 28% | protection, indomethacin-induced gastric mucosal injury ([1]; dose 5 mg kg^−1 i.p.): 45% | protection, indomethacin-induced gastric mucosal injury ([1]; dose 10 mg kg^−1 i.p.): 62% | protection, indomethacin-induced gastric mucosal injury ([1]; dose 20 mg kg^−1 i.p.): 82% | protection, indomethacin-induced gastric mucosal injury ([1]; dose 50 mg kg^−1 i.p.): 94% | ED50, prevention of indomethacin-induced gastric mucosal damage ([1]; intraperitoneal, rats, listed as SEGA (3a)): 6.9 mg/kg | histology of gastric mucosal tissue (haematoxylin-eosin) ([1]; pretreated indomethacin-treated rats): could protect gastric mucosa | FRAP Value6 min (μM) M ± SD ([2]; 6 min, compound at 10 μM relative to ferrous sulfate): 39.51 ± 2.7 µM | FRAP Value65 min (μM) M ± SD ([2]; 65 min, compound at 10 μM relative to ferrous sulfate): 60.61 ± 7.3 µM | reducing ability (Fe^3+ to Fe^2+) / antioxidant property in words ([2]; compared to other tryptamine derivatives and known antioxidants): greater reducing ability
